Patent publication US10189841B2, “Purinones as ubiquitin-specific protease 1 inhibitors” (Forma Therapeutics, Inc., priority 2015, dated 2019)

The molecules below were run against USP1 (construct USP1 (I-785, GG670, 671AA)/UAF1 (I-677)-Flag) (Homo sapiens (Human), UniProt O94782, G670A/G671A) (assay: Ubiquitin-Rhodamine 110 assay for USP1 activity). Details: USP1/UAF1 25 pM, Ub-Rh110 25 nM, 30 min preincubation.
Sequence of USP1 (construct USP1 (I-785, GG670, 671AA)/UAF1 (I-677)-Flag) (O94782 whole entry G670A/G671A): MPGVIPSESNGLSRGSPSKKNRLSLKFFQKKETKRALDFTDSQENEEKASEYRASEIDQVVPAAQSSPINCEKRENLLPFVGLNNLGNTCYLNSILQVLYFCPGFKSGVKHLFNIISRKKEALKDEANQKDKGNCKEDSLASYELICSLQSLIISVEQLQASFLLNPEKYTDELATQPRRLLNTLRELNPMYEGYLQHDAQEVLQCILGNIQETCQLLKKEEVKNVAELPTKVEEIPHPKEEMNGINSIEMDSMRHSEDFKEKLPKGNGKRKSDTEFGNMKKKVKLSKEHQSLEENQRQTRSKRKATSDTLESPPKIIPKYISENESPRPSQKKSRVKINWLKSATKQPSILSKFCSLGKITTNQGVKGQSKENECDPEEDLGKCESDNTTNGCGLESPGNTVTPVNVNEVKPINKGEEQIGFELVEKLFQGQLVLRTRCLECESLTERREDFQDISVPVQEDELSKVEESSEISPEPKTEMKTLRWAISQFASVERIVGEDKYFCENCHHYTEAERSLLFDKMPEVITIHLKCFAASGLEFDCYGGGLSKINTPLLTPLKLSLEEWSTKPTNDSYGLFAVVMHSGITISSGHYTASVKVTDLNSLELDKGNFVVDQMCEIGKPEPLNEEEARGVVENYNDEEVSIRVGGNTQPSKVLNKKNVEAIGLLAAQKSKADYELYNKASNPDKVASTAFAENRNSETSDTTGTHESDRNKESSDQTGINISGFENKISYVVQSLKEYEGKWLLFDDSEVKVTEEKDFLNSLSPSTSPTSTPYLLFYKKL
Sequence of USP1 (construct USP1 (I-785, GG670, 671AA)/UAF1 (I-677)-Flag) (Q8TAF3 whole entry partner): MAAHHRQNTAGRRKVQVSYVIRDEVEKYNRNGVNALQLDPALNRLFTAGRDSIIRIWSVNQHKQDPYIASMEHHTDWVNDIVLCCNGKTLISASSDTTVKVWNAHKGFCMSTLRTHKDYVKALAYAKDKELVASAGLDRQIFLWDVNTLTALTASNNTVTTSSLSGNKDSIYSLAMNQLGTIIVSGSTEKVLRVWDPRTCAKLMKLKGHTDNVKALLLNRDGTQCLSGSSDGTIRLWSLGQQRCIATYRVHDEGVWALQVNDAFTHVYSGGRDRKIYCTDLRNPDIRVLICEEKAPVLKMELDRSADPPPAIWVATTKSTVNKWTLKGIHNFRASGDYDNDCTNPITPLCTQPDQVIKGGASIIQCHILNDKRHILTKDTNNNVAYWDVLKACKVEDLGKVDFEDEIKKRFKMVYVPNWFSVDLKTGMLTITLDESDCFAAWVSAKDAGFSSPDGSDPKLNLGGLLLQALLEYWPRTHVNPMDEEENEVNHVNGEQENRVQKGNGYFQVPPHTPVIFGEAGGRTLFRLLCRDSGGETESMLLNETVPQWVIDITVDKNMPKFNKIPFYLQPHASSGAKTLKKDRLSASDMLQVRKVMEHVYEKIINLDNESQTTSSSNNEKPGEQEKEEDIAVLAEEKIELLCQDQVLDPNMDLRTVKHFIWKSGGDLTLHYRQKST
Format: biochemical
Summary of the method: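 Ub-Rh110 (25 nM, ≪Km) cleavage read at ex 485/em 535 in Tris pH 8.0, CaCl2, GSH, Prionex, Triton X-100. The screen used 10 µM compound, 100 pM USP1/UAF1 and 45 min at RT.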
`[2H]C([2H])([2H])n1cc(C(F)(F)F)nc1-c1ccc(Cn2c(=O)n(C)c3cnc(-c4cccnc4C(C)C)nc32)cc1` [Compound I-131, 2-(2-isopropylpyridin-3-yl)-7-methyl-9-(4-(1-(methyl-d3)-4-(trifluoromethyl)-1H-imidazol-2-yl)benzyl)-7,9-dihydro-8H-purin-8-one] was tested, and the IC50 was < 50 nM.
With `Cn1cc(C(F)(F)F)nc1-c1ccc(Cn2c(=O)n(C)c3cnc(-c4ccccc4C(C)(C)O)nc32)cc1` [Compound I-132, 2-(2-(2-hydroxypropan-2-yl)phenyl)-7-methyl-9-(4-(1-methyl-4-(trifluoromethyl)-1H-imidazol-2-yl)benzyl)-7,9-dihydro-8H-purin-8-one] the IC50 was < 50 nM.
For `Cn1cc(C(F)(F)F)nc1-c1ccc(Cn2c(=O)n(C)c3cnc(-c4cccnc4N4CCOCC4)nc32)cc1` [Compound I-133, 7-methyl-9-(4-(1-methyl-4-(trifluoromethyl)-1H-imidazol-2-yl)benzyl)-2-(2-morpholinopyridin-3-yl)-7,9-dihydro-8H-purin-8-one], the IC50 was 200 to 2000 nM.
For `Cn1cc(C(F)(F)F)nc1-c1ccc(Cn2c(=O)n(C)c3cnc(-c4cccnc4N4CC(F)C4)nc32)cc1` [Compound I-134, 2-(2-(3-fluoroazetidin-1-yl)pyridin-3-yl)-7-methyl-9-(4-(1-methyl-4-(trifluoromethyl)-1H-imidazol-2-yl)benzyl)-7,9-dihydro-8H-purin-8-one], the IC50 was 50 to 200 nM.
With `Cn1cc(C(F)(F)F)nc1-c1ccc(Cn2c(=O)n(C)c3cnc(-c4cccnc4N4CC(F)(F)C4)nc32)cc1` [Compound I-135, 2-(2-(3,3-difluoroazetidin-1-yl)pyridin-3-yl)-7-methyl-9-(4-(1-methyl-4-(trifluoromethyl)-1H-imidazol-2-yl)benzyl)-7,9-dihydro-8H-purin-8-one] the IC50 was 50 to 200 nM.
`Cn1cc(C(F)(F)F)nc1-c1ccc(Cn2c(=O)n(C)c3cnc(-c4cccnc4N4CC(C(F)(F)F)C4)nc32)cc1` [Compound I-136, 7-methyl-9-(4-(1-methyl-4-(trifluoromethyl)-1H-imidazol-2-yl)benzyl)-2-(2-(3-(trifluoromethyl)azetidin-1-yl)pyridin-3-yl)-7,9-dihydro-8H-purin-8-one] gave an IC50 of 50 to 200 nM.
For `Cn1cc(C(F)(F)F)nc1-c1ccc(Cn2c(=O)n(C)c3cnc(-c4cccnc4OC4CC4)nc32)cc1` [Compound I-137, 2-(2-cyclopropoxypyridin-3-yl)-7-methyl-9-(4-(1-methyl-4-(trifluoromethyl)-1H-imidazol-2-yl)benzyl)-7,9-dihydro-8H-purin-8-one], the IC50 was < 50 nM.
In the case of `CC(C)c1ccccc1-c1ncc2[nH]c(=O)n(Cc3ccc(-c4nc(C(F)(F)F)cn4C)cc3)c2n1` [Compound I-138, 2-(2-Isopropylphenyl)-9-(4-(1-methyl-4-(trifluoromethyl)-1H-imidazol-2-yl)benzyl)-7,9-dihydro-8H-purin-8-one], the IC50 is reported as < 50 nM.
Work on `CC(C)c1ccccc1-c1ncc2[nH]c(=O)n(Cc3ccc(-n4ccnn4)cc3)c2n1` [Compound I-139, 9-(4-(1H-1,2,3-triazol-1-yl)benzyl)-2-(2-isopropylphenyl)-7,9-dihydro-8H-purin-8-one] yielded an IC50 of 50 to 200 nM.
In the case of `CC(C)c1ccccc1-c1ncc2[nH]c(=O)n(Cc3ccc(-n4nccn4)cc3)c2n1` [Compound I-140, 9-(4-(2H-1,2,3-triazol-2-yl)benzyl)-2-(2-isopropylphenyl)-7,9-dihydro-8H-purin-8-one], the IC50 is reported as 50 to 200 nM.
Work on `CC(C)c1ccccc1-c1ncc2[nH]c(=O)n([C@@H](C)c3ccc(-n4nccn4)cc3)c2n1` [Compound I-141, (S)-9-(1-(4-(2H-1,2,3-triazol-2-yl)phenyl)ethyl)-2-(2-isopropylphenyl)-7,9-dihydro-8H-purin-8-one] yielded an IC50 of 200 to 2000 nM.
With `CC(C)c1ccccc1-c1ncc2[nH]c(=O)n([C@H](C)c3ccc(-n4nccn4)cc3)c2n1` [Compound I-142, (R)-9-(1-(4-(2H-1,2,3-triazol-2-yl)phenyl)ethyl)-2-(2-isopropylphenyl)-7,9-dihydro-8H-purin-8-one] the IC50 was 200 to 2000 nM.
With `CC(C)c1ccccc1-c1ncc2[nH]c(=O)n(CC3CCN(c4cccnc4)CC3)c2n1` [Compound I-143, 2-(2-isopropylphenyl)-9-((1-(pyridin-3-yl)piperidin-4-yl)methyl)-7,9-dihydro-8H-purin-8-one] the IC50 was 200 to 2000 nM.
With `CC(C)c1ccccc1-c1ncc2[nH]c(=O)n(C3CCN(c4cccnc4)CC3)c2n1` [Compound I-144, 2-(2-isopropylphenyl)-9-(1-(pyridin-3-yl)piperidin-4-yl)-7,9-dihydro-8H-purin-8-one] the IC50 was > 2000 nM.
For `CC(C)c1ccccc1-c1ncc2[nH]c(=O)n(Cc3ccc(-n4cccn4)cc3)c2n1` [Compound I-145, 9-(4-(1H-pyrazol-1-yl)benzyl)-2-(2-isopropylphenyl)-7,9-dihydro-8H-purin-8-one], the IC50 was < 50 nM.
Work on `CC(C)c1ccccc1-c1ncc2[nH]c(=O)n(Cc3ccc(-n4cccn4)nc3)c2n1` [Compound I-146, 9-((6-(1H-pyrazol-1-yl)pyridin-3-yl)methyl)-2-(2-isopropylphenyl)-7,9-dihydro-8H-purin-8-one] yielded an IC50 of 50 to 200 nM.
For `CC(C)c1ccccc1-c1ncc2[nH]c(=O)n([C@@H](C)c3ccc(-n4ccnn4)cc3)c2n1` [Compound I-147, (S)-9-(1-(4-(1H-1,2,3-triazol-1-yl)phenyl)ethyl)-2-(2-isopropylphenyl)-7,9-dihydro-8H-purin-8-one], the IC50 was 50 to 200 nM.
`CC(C)c1ccccc1-c1ncc2[nH]c(=O)n([C@H](C)c3ccc(-n4ccnn4)cc3)c2n1` [Compound I-148, (R)-9-(1-(4-(1H-1,2,3-triazol-1-yl)phenyl)ethyl)-2-(2-isopropylphenyl)-7,9-dihydro-8H-purin-8-one] gave an IC50 of 200 to 2000 nM.
Work on `CC(C)c1ccccc1-c1ncc2[nH]c(=O)n(Cc3ccc(-n4ccc(C(F)(F)F)n4)cc3)c2n1` [Compound I-149, 2-(2-isopropylphenyl)-9-(4-(3-(trifluoromethyl)-1H-pyrazol-1-yl)benzyl)-7,9-dihydro-8H-purin-8-one] yielded an IC50 of 50 to 200 nM.
`Cc1nnc(-c2ccc(Cn3c(=O)[nH]c4cnc(-c5ccccc5C(C)C)nc43)cc2)o1` [Compound I-150, 2-(2-isopropylphenyl)-9-(4-(5-methyl-1,3,4-oxadiazol-2-yl)benzyl)-7,9-dihydro-8H-purin-8-one] was tested, and the IC50 was < 50 nM.
`CC(C)c1ccccc1-c1ncc2[nH]c(=O)n(Cc3ccc(C#N)cc3)c2n1` [Compound I-151, 4-((2-(2-isopropylphenyl)-8-oxo-7,8-dihydro-9H-purin-9-yl)methyl)benzonitrile] gave an IC50 of 200 to 2000 nM.
For `Cc1nc(-c2ccc(Cn3c(=O)[nH]c4cnc(-c5ccccc5C(C)C)nc43)cc2)no1` [Compound I-152, 2-(2-isopropylphenyl)-9-(4-(5-methyl-1,2,4-oxadiazol-3-yl)benzyl)-7,9-dihydro-8H-purin-8-one], the IC50 was < 50 nM.
For `CC(C)c1ccccc1-c1ncc2[nH]c(=O)n(Cc3ccc(CN4CCOCC4)cc3)c2n1` [Compound I-153, 2-(2-isopropylphenyl)-9-(4-(morpholinomethyl)benzyl)-7,9-dihydro-8H-purin-8-one], the IC50 was > 2000 nM.
In the case of `CC(C)c1ccccc1-c1ncc2[nH]c(=O)n(Cc3ccc(-n4cncn4)cc3)c2n1` [Compound I-154, 9-(4-(1H-1,2,4-triazol-1-yl)benzyl)-2-(2-isopropylphenyl)-7,9-dihydro-8H-purin-8-one], the IC50 is reported as > 2000 nM.
With `CC(C)c1ccccc1-c1ncc2[nH]c(=O)n([C@H](C)c3ccccc3)c2n1` [Compound I-155, (R)-2-(2-isopropylphenyl)-9-(1-phenylethyl)-7,9-dihydro-8H-purin-8-one] the IC50 was 50 to 200 nM.
`CC(C)c1ccccc1-c1ncc2[nH]c(=O)n([C@@H](C)c3ccccc3)c2n1` [Compound I-156, (S)-2-(2-isopropylphenyl)-9-(1-phenylethyl)-7,9-dihydro-8H-purin-8-one] was tested, and the IC50 was > 2000 nM.
`CC(C)c1ccccc1-c1ncc2[nH]c(=O)n([C@@H](C)c3ccc(-n4cccn4)cc3)c2n1` [Compound I-157, (S)-9-(1-(4-(1H-pyrazol-1-yl)phenyl)ethyl)-2-(2-isopropylphenyl)-7,9-dihydro-8H-purin-8-one] was tested, and the IC50 was 50 to 200 nM.
For `CC(C)c1ccccc1-c1ncc2[nH]c(=O)n([C@@H]3CCOc4ccccc43)c2n1` [Compound I-159, (R)-9-(chroman-4-yl)-2-(2-isopropylphenyl)-7,9-dihydro-8H-purin-8-one], the IC50 was 200 to 2000 nM.
With `CC(C)c1ccccc1-c1ncc2[nH]c(=O)n(Cc3ccc(-c4nccn4C)cc3)c2n1` [Compound I-160, 2-(2-isopropylphenyl)-9-(4-(1-methyl-1H-imidazol-2-yl)benzyl)-7,9-dihydro-8H-purin-8-one] the IC50 was < 50 nM.
In the case of `CC(C)c1ccccc1-c1ncc2[nH]c(=O)n(CCC3CCN(c4cccnc4)CC3)c2n1` [Compound I-161, 2-(2-isopropylphenyl)-9-(2-(1-(pyridin-3-yl)piperidin-4-yl)ethyl)-7,9-dihydro-8H-purin-8-one], the IC50 is reported as 200 to 2000 nM.
`CC(C)c1ccccc1-c1ncc2[nH]c(=O)n(Cc3ccc(-n4cccn4)cc3Cl)c2n1` [Compound I-162, 9-(2-chloro-4-(1H-pyrazol-1-yl)benzyl)-2-(2-isopropylphenyl)-7,9-dihydro-8H-purin-8-one] showed an IC50 of 50 to 200 nM.
With `CC(C)c1ccccc1-c1ncc2[nH]c(=O)n([C@@H]3CC[C@H]3c3ccc(-n4cccn4)cc3)c2n1` [Compound I-163, 9-((1R,2S)-2-(4-(1H-pyrazol-1-yl)phenyl)cyclobutyl)-2-(2-isopropylphenyl)-7,9-dihydro-8H-purin-8-one] the IC50 was < 50 nM.
For `CC(C)c1ccccc1-c1ncc2[nH]c(=O)n([C@H]3CC[C@@H]3c3ccc(-n4cccn4)cc3)c2n1` [Compound I-164, 9-((1S,2R)-2-(4-(1H-pyrazol-1-yl)phenyl)cyclobutyl)-2-(2-isopropylphenyl)-7,9-dihydro-8H-purin-8-one], the IC50 was 200 to 2000 nM.
With `CC(C)c1c(F)cccc1-c1ncc2[nH]c(=O)n(Cc3ccc(-n4ccnn4)cc3)c2n1` [Compound I-165, 9-(4-(1H-1,2,3-triazol-1-yl)benzyl)-2-(3-fluoro-2-isopropylphenyl)-7,9-dihydro-8H-purin-8-one] the IC50 was 50 to 200 nM.
